Measurements taken from US20220402925A1, “COMPOUNDS AND METHODS FOR THE TREATMENT OF CYSTIC FIBROSIS” (Flatley Discovery Lab, LLC, priority 2019, published 2022).

Molecular target: T1, F508del CFTR (Homo sapiens, UniProt P13569, DEL508-508)
T1 construct: Primary CF airway epithelial cells were obtained from the UNC Cystic Fibrosis Tissue Procurement and Cell Culture Core; host or cells: primary CF airway epithelial cells
Test: Equivalent current assay in primary CF airway epithelial cells (Corrector Activity, NAUC normalized to 3 μM VX809)
Type: cell-based
Details: NAUC as % of positive control (VX-809)
Description: Primary CF airway epithelial cells were obtained from the UNC Cystic Fibrosis Tissue Procurement and Cell Culture Core. The cells are grown at 37° C. in a Heracell 150i incubator using growth media (BEGM, Fischer). Cells were then transferred to differentiation media (airway liquid interface media (ALI) media; Lechner J F and LaVeck M A, J. Tissue Culture Methods 1985, 9: 43-48) for a minimum of 4 weeks on coated Costar transwells. Two days before the assay the mucus on the apical surface of the cells was aspirated after incubating with 200 μL of differentiation media for at least thirty (30) minutes. One day before the assay test compounds were added to the basolateral surface of the cells at various test concentrations dissolved in DMSO. Duplicate wells were prepared giving a n=4 or n=6 protocol.
Cells were treated for 24 hours with various combinations and concentrations of the test articles, reference standard (3 μM VX809, positive control). Compounds stock solutions were prepared in DMSO and diluted 1/1000 into ALI media to their final assay concentration. Cells were treated with combination solutions (2 mL of each dilution) and incubated at 37° C. for 24 h.
For the equivalent current assay, cells on six Transwell (24-well) plates were treated. Each Transwell plate was filled with 200 μl of HBS on the apical surface and 2 ml on the basolateral surface. Plates were placed horizontally in a heated mount at 37° C. and equilibrated for 30 minutes. Resting current was measured for 15 min and then blocked by the apical addition of 5 μM benzamil. After 20 min, CFTR activator (10 μM forskolin) and potentiator (either 1 μM VX-770 or 3 μM FDL176) were added to both the apical and basolateral side to stimulate CFTR. An increase in chloride current is seen as an upward deflection of the trace. After another 60 min, CFTR-172 (a CFTR inhibitor, 20 μM) and/or bumetanide (20 uM) was added to block CFTR mediated chloride current.
The raw data, voltage vs. time and resistance vs. time for the equivalent current assay (sampling interval: 6 minutes) were transferred to Excel (Microsoft Office Professional, version 14.0.7106.5003) for analysis. CFTR specific current was computed from I=V/R (Ohms Law), the average amplitude of the increase in current elicited upon addition forskolin and ending upon addition of the CFTR channel specific blocker CFTR-172. This average is equivalent to the sum of the average forskolin activated and the average VX770-potentiated currents. The average current measured in vehicle (0.1% DMSO) treated cells, IV, was subtracted from the current for the test article, ITA, or from the corrector reference standard VX809 (3 uM, ISTD). For replicate measurements, the averaged vehicle subtracted response for the test article, was normalized to the averaged vehicle subtracted response of the reference corrector VX809 (3 μM).
INSC=(ITA−IV)(ave)/(ISTD−IV)(ave) (Equation 1)
A second endpoint, for the equivalent current assay, evaluated was NAUC, the normalized area under the curve (AUC) measuring the response after addition of forskolin and potentiator to the time point right before the addition of the CFTR inhibitor. The AUC is effectively the average response multiplied by the duration of the response. The AUC of the test article, AUCTA was then corrected by subtracting the average vehicle response, AUCV,ave over the same time range, and normalized as for the inhibitor-sensitive current to the difference of the corrector reference standard VX809 (3 μM VX809r,ave and the vehicle response:
NAUCTA=[AUCTA−AUCV,ave]/[AUCVx809r,ave−AUCV,ave] (Equation 2).
The normalized value for DMSO is 0.0 and for VX-809 alone is 1.0 for both of these equations.
Experiments were run with a minimum of n=4 replicates per concentration. Since the distribution for the ratio of two normal distributions is a Cauchy distribution, the median value must be used for the average and the average deviation must be used for the error of all normalized data. […]

T1 sequence (P13569 with tags, fused parts or gaps DEL508-508): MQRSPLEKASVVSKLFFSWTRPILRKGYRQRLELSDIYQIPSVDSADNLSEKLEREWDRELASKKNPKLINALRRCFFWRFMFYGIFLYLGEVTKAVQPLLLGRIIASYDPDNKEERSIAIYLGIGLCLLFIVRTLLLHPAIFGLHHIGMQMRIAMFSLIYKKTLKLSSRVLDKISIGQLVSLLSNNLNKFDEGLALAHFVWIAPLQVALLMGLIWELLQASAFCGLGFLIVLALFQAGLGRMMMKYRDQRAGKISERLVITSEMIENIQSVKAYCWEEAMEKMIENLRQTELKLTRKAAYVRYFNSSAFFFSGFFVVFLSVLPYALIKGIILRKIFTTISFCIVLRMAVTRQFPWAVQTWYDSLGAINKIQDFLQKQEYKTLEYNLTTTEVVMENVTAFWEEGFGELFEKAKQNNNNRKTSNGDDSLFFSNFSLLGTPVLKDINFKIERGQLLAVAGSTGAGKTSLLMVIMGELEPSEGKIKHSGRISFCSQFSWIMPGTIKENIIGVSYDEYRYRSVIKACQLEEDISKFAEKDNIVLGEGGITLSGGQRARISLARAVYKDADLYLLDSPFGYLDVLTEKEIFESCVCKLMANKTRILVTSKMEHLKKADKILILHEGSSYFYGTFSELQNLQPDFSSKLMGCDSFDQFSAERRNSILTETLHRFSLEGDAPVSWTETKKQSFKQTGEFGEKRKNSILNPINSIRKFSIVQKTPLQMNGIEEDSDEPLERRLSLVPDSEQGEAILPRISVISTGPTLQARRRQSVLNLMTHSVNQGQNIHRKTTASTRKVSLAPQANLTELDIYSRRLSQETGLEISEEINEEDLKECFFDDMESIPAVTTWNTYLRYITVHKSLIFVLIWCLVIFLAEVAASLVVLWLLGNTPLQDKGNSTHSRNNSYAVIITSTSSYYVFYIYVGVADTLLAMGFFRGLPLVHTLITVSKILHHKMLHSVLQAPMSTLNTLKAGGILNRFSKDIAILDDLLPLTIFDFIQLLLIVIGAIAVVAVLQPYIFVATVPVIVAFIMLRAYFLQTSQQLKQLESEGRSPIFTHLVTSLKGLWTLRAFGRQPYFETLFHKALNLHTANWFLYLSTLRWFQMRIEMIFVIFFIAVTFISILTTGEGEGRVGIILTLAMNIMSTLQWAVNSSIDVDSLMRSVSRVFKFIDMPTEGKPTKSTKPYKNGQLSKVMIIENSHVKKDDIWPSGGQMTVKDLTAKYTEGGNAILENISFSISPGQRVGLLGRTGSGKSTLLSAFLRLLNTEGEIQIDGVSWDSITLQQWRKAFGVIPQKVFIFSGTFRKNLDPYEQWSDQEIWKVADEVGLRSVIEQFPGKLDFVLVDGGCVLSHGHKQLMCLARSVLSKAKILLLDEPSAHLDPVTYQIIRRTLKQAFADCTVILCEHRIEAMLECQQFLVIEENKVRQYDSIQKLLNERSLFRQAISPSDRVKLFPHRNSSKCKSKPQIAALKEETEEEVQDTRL

Structure (SMILES)	Corr Activity (NAUC)
CCN(C(=O)Cn1nc(-c2cccc(OC(C)(C)C)c2)c2oc(C(=O)NC(C)(C)C)cc2c1=O)c1ccc2c(c1)OC(F)(F)O2 [Example 122]	++ (NAUC 70-40% of positive control)
CN(C(=O)Cn1nc(-c2cccc(OC(C)(C)C)c2)c2oc(C(=O)NC(C)(C)C)cc2c1=O)c1ccc2c(c1)OC(F)(F)O2 [Example 123]	+ (NAUC<40% of positive control)
CCN(C(=O)Cn1nc(-c2cccc(OC(F)(F)F)c2)c2oc(C(=O)NC(C)(C)C)cc2c1=O)c1ccc2c(c1)OC(F)(F)O2 [Example 124]	++ (NAUC 70-40% of positive control)
CN(C(=O)Cn1nc(-c2cccc(OC(F)(F)F)c2)c2oc(C(=O)NC(C)(C)C)cc2c1=O)c1ccc2c(c1)OC(F)(F)O2 [Example 125]	++ (NAUC 70-40% of positive control)
CN(C(=O)Cn1nc(-c2cccc(C(C)(C)C)c2)c2oc(C(=O)NC(C)(C)C)cc2c1=O)c1ccc2c(c1)OC(F)(F)O2 [Example 126]	+++ (NAUC>70% of positive control)
CC(C)(C)NC(=O)c1cc2c(=O)n(CC(=O)N3CCCc4c3ccc3c4OC(F)(F)O3)nc(-c3cccc(Cl)c3)c2o1 [Example 128]	++ (NAUC 70-40% of positive control)
CC(C)(C)NC(=O)c1cc2c(=O)n(CC(=O)N3CCCc4c3ccc3c4OC(F)(F)O3)nc(-c3cccc(C#N)c3)c2o1 [Example 129]	++ (NAUC 70-40% of positive control)
CCN(C(=O)Cn1nc(-c2cc(C#N)cc(C(C)(C)C)c2)c2oc(C(=O)NC(C)(C)C)cc2c1=O)c1ccc2c(c1)OC(F)(F)O2 [Example 130]	+++ (NAUC>70% of positive control)
CCN(C(=O)Cn1nc(-c2cc(C)cc(C#N)c2)c2oc(C(=O)NC(C)(C)C)cc2c1=O)c1ccc2c(c1)OC(F)(F)O2 [Example 131]	+++ (NAUC>70% of positive control)
Cc1cc(C#N)cc(-c2nn(CC(=O)N(C)c3ccc4c(c3)OC(F)(F)O4)c(=O)c3cc(C(=O)NC(C)(C)C)oc23)c1 [Example 132]	+++ (NAUC>70% of positive control)
CCN(C(=O)Cn1nc(-c2cc(C)cc(C#N)c2)c2oc(C(=O)NC(C)(C)C)cc2c1=O)c1cc2c(cc1C)OC(F)(F)O2 [Example 133]	+++ (NAUC>70% of positive control)
Cc1cc(C#N)cc(-c2nn(CC(=O)N(C)c3cc4c(cc3C)OC(F)(F)O4)c(=O)c3cc(C(=O)NC(C)(C)C)oc23)c1 [Example 134]	++ (NAUC 70-40% of positive control)
Cc1cc2c(cc1N(C)C(=O)Cn1nc(-c3cc(F)cc(C#N)c3)c3oc(C(=O)NC(C)(C)C)cc3c1=O)OC(F)(F)O2 [Example 135]	+++ (NAUC>70% of positive control)
CCN(C(=O)Cn1nc(-c2cc(F)cc(C#N)c2)c2oc(C(=O)NC(C)(C)C)cc2c1=O)c1cc2c(cc1C)OC(F)(F)O2 [Example 136]	+++ (NAUC>70% of positive control)
CCN(C(=O)Cn1nc(-c2cc(Cl)cc(C#N)c2)c2oc(C(=O)NC(C)(C)C)cc2c1=O)c1cc2c(cc1C)OC(F)(F)O2 [Example 137]	+++ (NAUC>70% of positive control)
Cc1cc2c(cc1N(C)C(=O)Cn1nc(-c3cc(Cl)cc(C#N)c3)c3oc(C(=O)NC(C)(C)C)cc3c1=O)OC(F)(F)O2 [Example 138]	+++ (NAUC>70% of positive control)
Cc1c(N(C)C(=O)Cn2nc(-c3cc(F)cc(C#N)c3)c3oc(C(=O)NC(C)(C)C)cc3c2=O)ccc2c1OC(F)(F)O2 [Example 139]	+++ (NAUC>70% of positive control)
CCN(C(=O)Cn1nc(-c2cc(F)cc(C#N)c2)c2oc(C(=O)NC(C)(C)C)cc2c1=O)c1ccc2c(c1C)OC(F)(F)O2 [Example 140]	++ (NAUC 70-40% of positive control)
Cc1c(N(C)C(=O)Cn2nc(-c3cc(Cl)cc(C#N)c3)c3oc(C(=O)NC(C)(C)C)cc3c2=O)ccc2c1OC(F)(F)O2 [Example 141]	+++ (NAUC>70% of positive control)

Further lines, results first:

Corr Activity (NAUC)	Structure (SMILES)
++ (NAUC 70-40% of positive control)	CCN(C(=O)Cn1nc(-c2cc(Cl)cc(C#N)c2)c2oc(C(=O)NC(C)(C)C)cc2c1=O)c1ccc2c(c1C)OC(F)(F)O2 [Example 142]
++ (NAUC 70-40% of positive control)	CN(C(=O)Cn1nc(-c2cc(C#N)cc(C(F)(F)F)c2)c2oc(C(=O)NC(C)(C)C)cc2c1=O)c1ccc2c(c1)OC(F)(F)O2 [Example 143]
+++ (NAUC>70% of positive control)	CCN(C(=O)Cn1nc(-c2cc(C#N)cc(C(F)(F)F)c2)c2oc(C(=O)NC(C)(C)C)cc2c1=O)c1ccc2c(c1)OC(F)(F)O2 [Example 144]
++ (NAUC 70-40% of positive control)	Cc1cc2c(cc1N(C)C(=O)Cn1nc(-c3cc(C#N)cc(C(F)F)c3)c3oc(C(=O)NC(C)(C)C)cc3c1=O)OC(F)(F)O2 [Example 145]
+++ (NAUC>70% of positive control)	CN(C(=O)Cn1nc(-c2cc(C#N)cc(C(F)F)c2)c2oc(C(=O)NC(C)(C)C)cc2c1=O)c1ccc2c(c1)OC(F)(F)O2 [Example 146]
+++ (NAUC>70% of positive control)	CCN(C(=O)Cn1nc(-c2cccc(C#N)c2)c2oc(C(=O)NC(C)(C)C)cc2c1=O)c1ccc2c(c1F)OC(F)(F)O2 [Example 147]
+++ (NAUC>70% of positive control)	CN(C(=O)Cn1nc(-c2cccc(C#N)c2)c2oc(C(=O)NC(C)(C)C)cc2c1=O)c1ccc2c(c1F)OC(F)(F)O2 [Example 148]
+++ (NAUC>70% of positive control)	CCN(C(=O)Cn1nc(-c2cccc(C#N)c2)c2oc(C(=O)NC(C)(C)C(F)(F)F)cc2c1=O)c1ccc2c(c1)OC(F)(F)O2 [Example 149]
+++ (NAUC>70% of positive control)	CCN(C(=O)Cn1nc(-c2cc(C)cc(C#N)c2)c2oc(C(=O)NC(C)(C)C(F)(F)F)cc2c1=O)c1ccc2c(c1)OC(F)(F)O2 [Example 150]
+++ (NAUC>70% of positive control)	CCN(C(=O)Cn1nc(-c2cc(C)cc(C#N)c2)c2oc(C(=O)NC(C)(C)C(F)(F)F)cc2c1=O)c1cc2c(cc1C)OC(F)(F)O2 [Example 151]
+++ (NAUC>70% of positive control)	CCN(C(=O)Cn1nc(-c2cc(C)cc(C#N)c2)c2oc(C(=O)NC3(C(F)(F)F)CC3)cc2c1=O)c1ccc2c(c1)OC(F)(F)O2 [Example 152]
+++ (NAUC>70% of positive control)	CCN(C(=O)Cn1nc(-c2cccc(C#N)c2)c2oc(C(=O)NC3(C(F)(F)F)CC3)cc2c1=O)c1ccc2c(c1)OC(F)(F)O2 [Example 153]
+++ (NAUC>70% of positive control)	CCN(C(=O)Cn1nc(-c2cc(C)cc(C#N)c2)c2oc(C(=O)NC3(C(F)(F)F)CC3)cc2c1=O)c1cc2c(cc1C)OC(F)(F)O2 [Example 154]
++ (NAUC 70-40% of positive control)	Cc1nc2ccc(N(C)C(=O)Cn3nc(-c4cccc(F)c4)c4oc(C(=O)NC(C)C)cc4c3=O)cc2o1 [Example 155]
++ (NAUC 70-40% of positive control)	Cc1nc2ccc(N(C)C(=O)Cn3nc(-c4cccc(C#N)c4)c4oc(C(=O)NC(C)C)cc4c3=O)cc2o1 [Example 156]
++ (NAUC 70-40% of positive control)	Cc1nc2ccc(N(C)C(=O)Cn3nc(-c4cccc(F)c4)c4oc5ccccc5c4c3=O)cc2o1 [Example 157]
